Test results reported in paper PMC6450673, “Targeted degradation of aberrant tau in frontotemporal dementia patient-derived neuronal cell models” (eLife, 2019).
pKd: −log10 of the molar value. Where two headings read alike, the source gives them in different places.

Columns and labels:
[1] = biological target: T1, recombinant human tau Tau-441(A152T) (Homo sapiens, UniProt P10636, A469T); experiment: Bio-layer interferometry (BLI) biosensor assay, tau A152T; assay type: binding
T1 construct: biotin (chemical label, NHS-PEG4); purchased SignalChem T08-56VN; host or cells: E. coli
T1 sequence (P10636 1-441 isoform P10636-8 A152T): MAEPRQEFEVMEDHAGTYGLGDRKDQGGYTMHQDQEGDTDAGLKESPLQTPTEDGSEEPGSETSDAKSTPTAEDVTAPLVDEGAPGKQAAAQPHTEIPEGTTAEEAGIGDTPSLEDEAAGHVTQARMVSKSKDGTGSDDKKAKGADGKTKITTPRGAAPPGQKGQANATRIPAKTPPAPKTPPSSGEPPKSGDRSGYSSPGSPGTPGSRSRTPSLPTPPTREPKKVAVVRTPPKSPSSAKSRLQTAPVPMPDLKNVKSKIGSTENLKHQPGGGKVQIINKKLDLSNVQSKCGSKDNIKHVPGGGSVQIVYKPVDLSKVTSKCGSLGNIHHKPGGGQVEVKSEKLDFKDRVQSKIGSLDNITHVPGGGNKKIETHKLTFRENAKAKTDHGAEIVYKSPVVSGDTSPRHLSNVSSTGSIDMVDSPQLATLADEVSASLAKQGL
Method: BLI was performed in the Octet Red384 instrument (ForteBio, Fremont CA, USA) with 1X PBS and 0.01% Brij-35 as the assay buffer. […] The biotinylated protein samples for BLI were purified in 1X phosphate buffered saline (PBS). Streptavidin (SA) sensors were used to measure the biophysical interaction between the small molecules and biotinylated tau. Prior to the initiation of BLI, the SA sensors were soaked by dipping in 200 μL of assay buffer in a 96-well Greiner Bio-One Black flat bottom plate (Greiner, Monroe NC, USA Cat.655209). The assay was performed in 80 μL volume in Greiner Bio-One 384-well black flat bottom PP plates (Greiner, Cat.781209) with an initial baseline step, followed by loading of 250 nM biotinylated tau protein. The small molecules samples and recombinant proteins were arranged in the 384-well plate according to a plate map recommended for the eight-channel mode kinetic analysis, where the sensors move from low to high concentration of small molecule samples. Subsequent steps included a second baseline (120 s), followed by association (240 s) and dissociation (240 s) cycles. […] Data analysis was performed using Data Acquisition HT 11.0 software following reference subtraction (an average of two sensors with DMSO) using a 1:1 binding model and an individual fit of each replicate. The equilibrium dissociation constant (KD) was estimated using data at equilibrium from each available small molecule concentration with steady-state analysis. The instrument manufacturer (Fortebio, article #137) recommends the steady state option for analyzing interactions that are either low affinity or very fast on-and-off affinity rates. […] When Req option is selected, Fortebio’s software calculates affinity constants based on the Req values determined from the curve fits. In the steady-state analysis, Req is plotted against the small molecule concentration to infer the Rmax. […] As per the instrument manufacturer’s instructions, if all curves have reached equilibrium, these two sets of values correspond to ‘Response,’ and Req values should match. […]

[2] = biological target: T2, P-tau S396 in control-1 8330–8-RC1 neurons (Homo sapiens, UniProt P10636); experiment: Western blot of P-tau S396 in control line 1 neurons; assay type: cell-based; settings: control line 1, western blot, 1 μM, 24 hr
T2 construct: modeling pathogenic tau species without the need for overexpression of heterologous genes; endogenous in cells; host or cells: 8330-8-RC1, MGH2069-RC1, CTR2-L17-RC2 human iPSC-derived neurons
T2 sequence (P10636 1-441 isoform P10636-8): as the sequence (P10636 1-441 isoform P10636-8 A152T) above, with T152A counted along it
Excerpt: Cells from individuals carrying the tau risk variant A152T (c.1407G > A; NCBI RefSeq NM_001123066, rs143624519), the autosomal dominant mutation P301L (c.C1907T; NCBI NM_001123066, rs63751273), or age-matched non-mutant WT tau were employed in this study (Figure 2—source data 1). Dermal fibroblasts from the tau-P301L carrier and the healthy individual were generated from a skin biopsy from subjects within the MGH Frontotemporal Disorders Unit as part of the MGH Neurodegeneration Repository. Approval for human subjects’ work was obtained under a Partners/MGH-approved IRB Protocol (#2010P001611/MGH). […]
Neurons differentiated in six-well plates for 6 weeks were washed and collected in PBS, lysed in RIPA buffer (Boston Bio-Products, Boston, MA) supplemented with 2% SDS (Sigma), protease inhibitors cocktail (Roche Complete Mini tablets, Mannheim, Germany), and phosphatase inhibitors cocktail (Sigma), followed by water sonication (Bransonic Ultrasonic Baths, Thomas Scientific, Danbury, CT) and 20,000 g centrifugation for 20 min. Supernatants were transferred to new tubes and total protein concentration was quantified with the Pierce BCA Protein Assay Kit (ThermoFisher Scientific, Carlsbad, CA). […]

In the case of O=C(CCc1ccc2c(c1)[nH]c1ccncc12)NCCOCCOCCNc1cccc2c1C(=O)N(C1CCC(=O)NC1=O)C2=O (stereo not drawn) [QC-01–175], the pKd ([1]; BLI steady-state analysis, immobilized biotinylated tau, Figure 1—figure supplement 1B, read-out: KD, Tau A152T) was 5.77, the Kd ([1]; BLI, Figure 1E, mean (n ≥ 3), read-out: KD (μM), Tau A152T, bars mean KD) was 1.66 µM and the “degradation of P-tau” value [2] was “unable to induce significant degradation”.
